One assay concerns the target T1, ASK1/MAP3K5 (Homo sapiens, UniProt Q99683).
T1 construct: purchased Reaction Biology Corp. (Malvern, Pa.)
T1 sequence (Q99683 1-1374): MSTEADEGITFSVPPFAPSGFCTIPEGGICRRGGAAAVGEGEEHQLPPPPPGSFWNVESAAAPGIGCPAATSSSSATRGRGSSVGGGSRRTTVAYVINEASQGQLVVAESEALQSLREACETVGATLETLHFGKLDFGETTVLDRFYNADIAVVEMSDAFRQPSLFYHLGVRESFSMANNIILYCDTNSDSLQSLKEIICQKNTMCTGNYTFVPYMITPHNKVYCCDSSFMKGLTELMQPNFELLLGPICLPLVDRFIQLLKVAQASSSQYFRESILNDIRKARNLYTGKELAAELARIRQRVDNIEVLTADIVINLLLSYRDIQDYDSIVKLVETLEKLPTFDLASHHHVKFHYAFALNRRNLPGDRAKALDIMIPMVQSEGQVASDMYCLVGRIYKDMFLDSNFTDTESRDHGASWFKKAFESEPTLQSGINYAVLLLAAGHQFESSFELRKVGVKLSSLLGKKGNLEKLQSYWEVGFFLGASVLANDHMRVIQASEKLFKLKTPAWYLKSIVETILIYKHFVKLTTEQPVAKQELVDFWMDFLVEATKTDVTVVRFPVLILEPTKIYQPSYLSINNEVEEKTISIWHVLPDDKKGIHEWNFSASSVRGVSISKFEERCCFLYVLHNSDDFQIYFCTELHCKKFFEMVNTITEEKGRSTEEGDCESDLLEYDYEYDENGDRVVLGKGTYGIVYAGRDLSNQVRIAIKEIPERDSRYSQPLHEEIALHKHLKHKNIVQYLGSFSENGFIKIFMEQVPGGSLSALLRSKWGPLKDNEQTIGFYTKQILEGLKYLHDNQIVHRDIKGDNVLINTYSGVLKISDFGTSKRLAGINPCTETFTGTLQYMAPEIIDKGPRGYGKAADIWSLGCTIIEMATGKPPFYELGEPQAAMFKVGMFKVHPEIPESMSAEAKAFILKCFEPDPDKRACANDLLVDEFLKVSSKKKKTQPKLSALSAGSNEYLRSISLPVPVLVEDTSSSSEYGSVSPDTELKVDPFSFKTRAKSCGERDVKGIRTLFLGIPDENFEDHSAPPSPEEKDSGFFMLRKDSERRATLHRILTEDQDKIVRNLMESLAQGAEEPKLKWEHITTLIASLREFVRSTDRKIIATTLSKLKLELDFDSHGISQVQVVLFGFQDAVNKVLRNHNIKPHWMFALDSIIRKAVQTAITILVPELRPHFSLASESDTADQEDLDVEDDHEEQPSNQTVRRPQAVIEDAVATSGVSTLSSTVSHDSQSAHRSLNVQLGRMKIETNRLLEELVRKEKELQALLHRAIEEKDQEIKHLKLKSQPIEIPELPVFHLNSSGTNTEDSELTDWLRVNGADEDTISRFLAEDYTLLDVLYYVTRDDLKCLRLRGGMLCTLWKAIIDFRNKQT
Nature of the assay: ASK1 enzyme assay (ASK1/MAP3K5 assay by Reaction Biology Corp., 33P-ATP filter-binding). Conditions: 20 μM myelin basic protein and 10 μM ATP. The assay is classed as biochemical. The method, then: The protein kinase inhibitory activity of the compounds described herein were tested using the ASK1/MAP3K5 assay by Reaction Biology Corp. (Malvern, Pa.). The assay procedure follows (and is also available on the Reaction Biology Corp. website). • Base Reaction Buffer: 20 mM Hepes (pH 7.5), 10 mM MgCl2, 1 mM EGTA, • 0.02% Brij35, 0.02 mg/mL BSA, 0.1 mM Na3VO4, 2 mM DTT, 1% DMSO; • Substrate: 20 μM of myelin basic protein (MBP) and 10 μM ATP; • Protein kinase: ASK1/MAP3K5. • Reaction Procedure: • 1. Prepare indicated substrate in freshly prepared Base Reaction Buffer. • 2. Deliver any required cofactors to the substrate solution. • 3. Deliver indicated kinase into the substrate solution and gently mix. • 4. Deliver compounds in DMSO into the kinase reaction mixture by Acoustic; technology (Echo550; nanoliter range), incubate for 20 minutes at room temperature. • 5. Deliver ^33P-ATP (specific activity 10 μCi/μL) into the reaction mixture to initiate the reaction. • 6. Incubate kinase reaction for 2 hours at room temperature. • 7. Reactions are spotted onto P81 ion exchange paper. • 8. Detect kinase activity by filter-binding method.

Assay [1] concerns the target T2, ASK1 T838 auto phosphorylation (Homo sapiens, UniProt Q99683).
T2 construct: ASK1-V5 tagged full length plasmid; expressed in transfected cells; host or cells: HEK-293T
T2 sequence (Q99683 1-1374): T1 sequence (Q99683 1-1374)
Briefly: ASK1 (AUTO PHOS T838) assay in HEK-293T cells, MSD format. The assay is classed as cell-based. The note with it: HEK-293T cells transfected with ASK1-V5, 1 hr compound incubation. The method, then: ASK1 T838 auto phosphorylation was measured in HEK-293T cells using MSD assay format. HEK 293T cells were seeded in 15 cm plates at a density of 18 million cells and 20 mL DMEM with 10% FBS, Pen/Strep media. The plates were incubated at 37° C. overnight. Media on plates was changed to OPTI-MEM, serum free media and cells were transfected with 9 μg of ASK1-V5 tagged full length plasmid using Lipofectamine 2000 (Invitrogen) and the plates were incubated at 37° C. overnight. Cells were trypsinized, counted on Nexcellometer and plated into 96 well tissue culture plates with 100,000 cells/well and 200 μL media. Cells were incubated for 4 hr at 37° C. then ASK1 compounds were added using a HP 300e. Compounds were tested at 20 μM with 3 fold, 10 point dilution points then incubated for 1 hr at 37° C. A lysis buffer (Cell Signaling) was prepared with protease and phosphatase inhibitor and maintained at 4° C. until use. Media from cells was discarded and 120 μL of cold lysis buffer was added to the cells, the plate was shaken 4° C. for 1 hr. Lysate was mixed using Apricot liquid handler; aspirating up and down 16 times at high speed using 50 μL volume. 50 μL of cell lysates were transferred to a pre-coated MSD plates containing mouse anti-V5 antibody (1:500 dilution) and washed 3× with MSD wash buffer (TBST) and blocked with a 3% BSA solution. Plates were then incubated on a plate shaker overnight at 4° C. Plates were washed 3× with MSD wash buffer and 50 μL of rabbit anti-pASK1 T838 antibody was added to the wells and incubated for 2 hr at room temperature on a plate shaker. Plates were then washed and 50 μL of goat anti-rabbit sulfa-tag (1:500 dilution) was added to wells, and incubated for 1 hr at room temperature on a plate shaker. Plates were washed 3× and 150 μL of 2×MSD Read buffer was added to wells. Plates were immediately read on a MSD Instrument Reader where chemoluminecense signal was measured. Data was analyzed using Graph Pad or Genedata, the data was normalized and plotted, % activity versus log of compound concentration. The IC50 values were obtained from a 4 parameter fit.

The results in this text go back to patent publication US11897898B2, “Pyridine macrocycle compounds as ASK1 inhibiting agents” (BIOGEN MA INC., priority 2018, dated 2024).

A word on the IC50: it is the concentration that gives 50% inhibition. A low value points to greater potency in that assay. In the case of `C[C@H]1CCCOc2ncc(N3CC(F)(F)C3)cc2C(=O)Nc2cccc(n2)-c2nncn21` [Compound 9, (S)-5^5-(3,3-Difluoroazetidin-1-yl)-10-methyl-1^4H-6-oxa-3-aza-2(2,6),5(3,2)-dipyridina-1(3,4)-triazolacyclodecaphan-4-one], the IC50 (on ASK1/MAP3K5 (class symbols); in assay [1] (class symbols)) was at most 0.1 µM each time.

In the case of `CC1CCCOc2ncccc2C(=O)Nc2cccc(n2)-c2nncn21` (stereo not drawn) [Compound 3, 10-Methyl-1^4H-6-oxa-3-aza-2(2,6),5(3,2)-dipyridina-1(3,4)-triazolacyclodecaphan-4-one], the IC50 was at most 0.1 µM on ASK1/MAP3K5 (class symbols) and 0.1 to 1 µM in assay [1] (class symbols).

With `C[C@H]1CN(c2cnc3c(c2)C(=O)Nc2cccc(n2)-c2nncn2[C@@H](C)CCCO3)CCN1C` (single isomer, unassigned) [Compound 13], the IC50 at ASK1/MAP3K5 (class symbols) was at most 0.1 µM; in assay [1] (class symbols), 0.1 to 1 µM.

As to `C[C@@H]1CCCOc2ncc(C(F)(F)F)cc2C(=O)Nc2cccc(n2)-c2nncn21` (single isomer, unassigned) [Compound 42], the IC50 (at ASK1/MAP3K5; in assay [1]) was at least 10 µM in each case.

With `C[C@@H]1CCCOc2ncc(C#N)cc2C(=O)Nc2cccc(n2)-c2nncn21` [Compound 37, (R)-10-Methyl-4-oxo-1^4H-6-oxa-3-aza-2(2,6),5(3,2)-dipyridina-1(3,4)-triazolacyclodecaphane-5^5-carbonitrile], the IC50 is 1 to 10 µM at ASK1/MAP3K5 (class symbols) and at least 10 µM in assay [1].

On to `C[C@@H]1CCCOc2ncccc2C(=O)Nc2cccc(n2)-c2nncn21` (single isomer, unassigned) [Compound 5], for which the figures for the IC50 (at ASK1/MAP3K5 (class symbols); in assay [1]) were 1 to 10 µM and at least 10 µM, respectively.

As for `C[C@H]1CCCOc2ncc(C3CN(C)C3)cc2C(=O)Nc2cccc(n2)-c2nncn21` [Compound 47, (S)-10-Methyl-5^5-(1-methylazetidin-3-yl)-1^4H-6-oxa-3-aza-2(2,6),5(3,2)-dipyridina-1(3,4)-triazolacyclodecaphan-4-one], the IC50 on ASK1/MAP3K5 (class symbols) is at most 0.1 µM; in assay [1] (class symbols), 0.1 to 1 µM.

Turning to `COC(C)(C)c1cnc2c(c1)C(=O)Nc1cccc(n1)-c1nncn1[C@@H](C)CCCO2` [Compound 40, (S)-5^5-(2-Methoxypropan-2-yl)-10-methyl-1^4H-6-oxa-3-aza-2(2,6),5(3,2)-dipyridina-1(3,4)-triazolacyclodecaphan-4-one], the values for the IC50 (at ASK1/MAP3K5 (class symbols); in assay [1] (class symbols)) were at most 0.1 µM and 0.1 to 1 µM, respectively.

On to `Cc1cncn1-c1cnc2c(c1)C(=O)Nc1cccc(n1)-c1nncn1[C@@H](C)CCCO2` (single isomer, unassigned) [Compound 31], for which the results for the IC50 (at ASK1/MAP3K5 (class symbols); in assay [1] (class symbols)) were at most 0.1 µM and 0.1 to 1 µM, respectively.

On to `C[C@H]1CCCOc2ncc(-n3cnc(C4CC4)c3)cc2C(=O)Nc2cccc(n2)-c2nncn21` (single isomer, unassigned) [Compound 32], for which the IC50 (on ASK1/MAP3K5 (class symbols); in assay [1] (class symbols)) was at most 0.1 µM in each case.

Take `C[C@H]1CCCOc2ncc(-c3cncn3C)cc2C(=O)Nc2cccc(n2)-c2nncn21` [Compound 28, (S)-10-Methyl-5^5-(1-methyl-1H-imidazol-5-yl)-1^4H-6-oxa-3-aza-2(2,6),5(3,2)-dipyridina-1(3,4)-triazolacyclodecaphan-4-one]: the IC50 (at ASK1/MAP3K5 (class symbols); in assay [1] (class symbols)) was at most 0.1 µM each time.

With `C[C@H]1CCCOc2ncc(-c3cnccn3)cc2C(=O)Nc2cccc(n2)-c2nncn21` [Compound 22, (S)-10-Methyl-5^5-(pyrazin-2-yl)-1^4H-6-oxa-3-aza-2(2,6),5(3,2)-dipyridina-1(3,4)-triazolacyclodecaphan-4-one], the concentration for half-maximal inhibition (IC50) (at ASK1/MAP3K5 (class symbols); in assay [1] (class symbols)) was at most 0.1 µM in each case.

Regarding `C[C@H]1CCCOc2ncc(C3=CCN(C)CC3)cc2C(=O)Nc2cccc(n2)-c2nncn21` [Compound 15, (S)-10-Methyl-5^5-(1-methyl-1,2,3,6-tetrahydropyridin-4-yl)-1^4H-6-oxa-3-aza-2(2,6),5(3,2)-dipyridina-1(3,4)-triazolacyclodecaphan-4-one], the 50% inhibitory concentration (IC50) (at ASK1/MAP3K5 (class symbols); in assay [1] (class symbols)) was at most 0.1 µM throughout.

In the case of `C[C@H]1CCCOc2ncc(N3CCOCC3)cc2C(=O)Nc2cccc(n2)-c2nncn21` [Compound 7, (S)-10-Methyl-5^5-morpholino-1^4H-6-oxa-3-aza-2(2,6),5(3,2)-dipyridina-1(3,4)-triazolacyclodecaphan-4-one], the IC50 (on ASK1/MAP3K5 (class symbols); in assay [1] (class symbols)) was at most 0.1 µM throughout.

For the molecule `COc1ccc(-c2cnc3c(c2)C(=O)Nc2cccc(n2)-c2nncn2[C@@H](C)CCCO3)cn1` [Compound 20, (S)-5^5-(6-Methoxypyridin-3-yl)-10-methyl-1^4H-6-oxa-3-aza-2(2,6),5(3,2)-dipyridina-1(3,4)-triazolacyclodecaphan-4-one], the IC50 (on ASK1/MAP3K5 (class symbols); in assay [1] (class symbols)) was at most 0.1 µM each time.

For `C[C@H]1CCCOc2ncc(-c3cnn(CCN(C)C)c3)cc2C(=O)Nc2cccc(n2)-c2nncn21` [Compound 25, (S)-5^5-(1-(2-(Dimethylamino)ethyl)-1H-pyrazol-4-yl)-10-methyl-1^4H-6-oxa-3-aza-2(2,6),5(3,2)-dipyridina-1(3,4)-triazolacyclodecaphan-4-one], the IC50 (at ASK1/MAP3K5 (class symbols); in assay [1] (class symbols)) was at most 0.1 µM each time.

On to `C[C@@H]1CCCOc2ncc(Br)cc2C(=O)Nc2cccc(n2)-c2nncn21` (single isomer, unassigned) [Compound 2], for which the IC50 on ASK1/MAP3K5 (class symbols) was 1 to 10 µM; in assay [1], at least 10 µM.

Take `C[C@H]1CCCOc2ncc(-c3ccnnc3)cc2C(=O)Nc2cccc(n2)-c2nncn21` [Compound 23, (S)-10-Methyl-5^5-(pyridazin-4-yl)-1^4H-6-oxa-3-aza-2(2,6),5(3,2)-dipyridina-1(3,4)-triazolacyclodecaphan-4-one]: the IC50 (at ASK1/MAP3K5 (class symbols); in assay [1] (class symbols)) was at most 0.1 µM in each case.
